These results are taken from patent US5593970A, “Heterocyclic anthracycline analogs” (priority 1994, dated 1997).

One experiment concerns MCF7/ADR. Briefly: Soft agar colony formation disk diffusion assay. Format: cell-based, human. From the text:
(§1) A more elaborate version of this fundamental assay, the soft agar colony formation disk diffusion assay was used. This assay defines the relative activity of one particular drug versus a tumoral cell line type. The effect of the test drug against tumoral cells could be measured by its inhibitory capacity against colony formation after the delivery of the compound, in different concentrations on an filter disk(4). A modified technique of this assay was used in order to investigate the antiproliferative activity of candidate compounds. Tumoral cells from solid tumors and ascitic lines were plated separately in a two layer agar matrix. Cell lines to be tested were suspended in an upper layer of 0.4% Noble agar (Difco#00142-01) in RPMI-1066 (Gibco#3201875) at a yield varying between 10^4 to 2×10^5 cells per 60 mm Petri dish. Plating efficiency was determined for each line in order to achieve an optimal number of colonies per dish. Plates were examined before drug administration to confirm a uniform dispersion of single cells. The bottom layer consisted of 0.8% Noble agar, 0.8% Tryptic Soy Broth (difco#0037001)in CMRL-1066/Fischer's. The bottom layers were used within 2 and 9 days of preparation. Plated dishes (bottom layer of agar, upper layer of cells and administered drug were incubated in humidified atmosphere at 37° C., 5% CO2 for 10-20 days depending upon the time necessary to observe adequate colonies (defined as a cell aggregate of more than 50 cells) both control and drug inhibited. Drugs were administered on a paper filter disk (Whatman No. 1) of 6.5 mm diameter placed on the upper layer at 1/3 distance from the edge of the dish. The anti-clonogenic activity of the compounds was measured as the zone of inhibition from the disk edge to the most proximal colonies. This zone of inhibition was checked on an inverted microscope (40×) and was measured with a micrometer mounted in the eyepiece. The ocular micrometer was calibrated with a stage micrometer set for a particular combination of ocular and objective lenses. […] We made a modification of the initial technique by not plating a solid tumor and a leukemia simultaneously in the same Petri dish. Anti-clonogenic tests performed on leukemia cell line have helped in the discovery of the majority of current clinically used cytostatic drugs. Our tests on solid tumor lines (animal or human) may help define active compounds with solid tumor specificity. […] HUMAN TUMORS. […] LS180 (13) and BE1(14) were obtained from the Oncology Dept. of the Montreal General Hospital. […] Cell lines were routinely passaged twice a week by trypsinization and maintained in 25, or 75-sq. cm Falcon Plastic flasks at 37° C., 5% CO2 in humidified atmosphere. Both compounds were dissolved in DMSO (1 mg/100 ul) and brought to final volume (250 ul) with Millipore deionized sterile water. Further dilutions were made with […] volume of 25 ul of freshly prepared solution was placed on the filter disk and allowed to dry.
Background: Agar diffusion results depend on both activity and mobility in agar.

A further experiment has as its system MCF7. In words: Soft agar colony formation disk diffusion assay. Format: cell-based, human.
From the text: as §1

The next experiment has as its system tumor cell lines. In words: Tumor clonogenic assay, overall. Type of experiment: cell-based. From the text:
For the IN VITRO test, we chose a tumor clonogenic assay which measures the ability of tumoral cells to form colonies (multicellular growth units) as a result of cell division in semisolid agar support (2,3). A more elaborate version of this fundamental assay, the soft agar colony formation disk diffusion assay was used. This assay defines the relative activity of one particular drug versus a tumoral cell line type. The effect of the test drug against tumoral cells could be measured by its inhibitory capacity against colony formation after the delivery of the compound, in different concentrations on an filter disk(4).
A modified technique of this assay was used in order to investigate the antiproliferative activity of candidate compounds. Tumoral cells from solid tumors and ascitic lines were plated separately in a two layer agar matrix. Cell lines to be tested were suspended in an upper layer of 0.4% Noble agar (Difco#00142-01) in RPMI-1066 (Gibco#3201875) at a yield varying between 10^4 to 2×10^5 cells per 60 mm Petri dish. Plating efficiency was determined for each line in order to achieve an optimal number of colonies per dish. Plates were examined before drug administration to confirm a uniform dispersion of single cells. The bottom layer consisted of 0.8% Noble agar, 0.8% Tryptic Soy Broth (difco#0037001)in CMRL-1066/Fischer's. The bottom layers were used within 2 and 9 days of preparation. Plated dishes (bottom layer of agar, upper layer of cells and administered drug were incubated in humidified atmosphere at 37° C., 5% CO2 for 10-20 days depending upon the time necessary to observe adequate colonies (defined as a cell aggregate of more than 50 cells) both control and drug inhibited. Drugs were administered on a paper filter disk (Whatman No. 1) of 6.5 mm diameter placed on the upper layer at 1/3 distance from the edge of the dish. The anti-clonogenic activity of the compounds was measured as the zone of inhibition from the disk edge to the most proximal colonies. This zone of inhibition was checked on an inverted microscope (40×) and was measured with a micrometer mounted in the eyepiece. The ocular micrometer was calibrated with a stage micrometer set for a particular combination of ocular and objective lenses.
200 units of activity are equivalent to 6.5 mm distance from the disk edge to the first colonies (5). […] We made a modification of the initial technique by not plating a solid tumor and a leukemia simultaneously in the same Petri dish. Anti-clonogenic tests performed on leukemia cell line have helped in the discovery of the majority of current clinically used cytostatic drugs. Our tests on solid tumor lines (animal or human) may help define active compounds with solid tumor specificity. This specific activity would be indicated by a higher level of cloning inhibition in solid tumors versus leukemias (6).

A further experiment has as its system tumor. Conditions: cited from earlier work.
The next experiment has as its system bacteria and fungi. To be noted: cited from earlier work.

Take `COC(=O)[C@H]1CC2=C(C(=O)c3cc4ccccc4c(O)c3C2=O)[C@H](O[C@H]2C[C@H](NC(=O)C(F)(F)F)[C@H](O)[C@H](C)O2)O1` [BCH-706]: the “cross resistance with adriamycin, MCF7/ADR vs MCF7” value in the experiment with MCF7/ADR is on record as “lack of cross resistance with adriamycin”. Further, the zone of inhibition is on record as 91.5 ± 8.6 Zone Units with MCF7/ADR (10 μg/DISK), 183.0 Zone Units with MCF7/ADR (100 μg/DISK), 103.7 ± 25.5 Zone Units in the experiment with MCF7 (10 μg/DISK) and 213.5 ± 43.1 Zone Units in the experiment on MCF7 (100 μg/DISK). The “activity and specificity in words” value with tumor cell lines is reported as “most active”.
Take `CC1OC2CC(=O)OC2C2=C1C(=O)c1c(O)c3c(c(O)c1C2=O)C1CC(O)C3(O)C(C)O1` (stereo not shown) [Granaticin]: in the experiment on tumor, the antitumor activity entry is “antitumor activity”.
Consider `CC(=O)N1Cc2c(O)c3c(c(O)c2C(O[C@H]2C[C@H](NC(=O)C(F)(F)F)[C@H](O)[C@H](C)O2)C1)C(=O)c1ccccc1C3=O` (stereo partly shown) [N-(trifluoroacetyl)-4-demethoxy-9-azadaunorubicin], for which, in the experiment on tumor, the antitumor activity entry is “no antitumor activity”.
Consider `CC1OC2OC(=O)OC2C2=C1C(=O)c1c(O)cccc1C2=O` (stereo not shown) [kalafungin], for which, in the experiment on bacteria and fungi, the “antibacterial and antifungal activity” value is reported as “potent antibacterial as well as antifungal activity”.
As to `C[C@@H]1O[C@@H](CC(=O)O)CC2=C1C(=O)c1c(O)cccc1C2=O` [nanaomycin A], the “antibacterial and antifungal activity” value in the experiment with bacteria and fungi is listed as “potent antibacterial as well as antifungal activity”.
